Reference: patent publication US7572765B2, “Conformationally constrained parathyroid hormone (PTH) analogs” (The General Hospital Corporation, priority 2001, dated 2009)
Each block holds one compound with its values, some of them ahead of it. Square brackets hold non-standard residues; d marks the D form. Peptide text beside a SMILES is read from it. hArg = N=C(N)NCCCC[C@H](N)C(=O)O; Aib = CC(C)(N)C(=O)O

Tests used:
[1] = target: T1, PTH-1 receptor endogenously expressed in SaOS-2 cells (Homo sapiens, UniProt Q03431); assay: cAMP stimulation in SaOS-2 cells; type: cell-based; settings: for EMAX(obs.): basal 6.4 ± 0.8; for EC50: N.R. = no cAMP response detected
T1 construct: endogenously expressed relatively low levels of the PTH-1 receptor; endogenous in cells; host or cells: SaOS-2 (SaOS-2-B10) human osteosarcoma cells
T1 sequence (Q03431 27-593): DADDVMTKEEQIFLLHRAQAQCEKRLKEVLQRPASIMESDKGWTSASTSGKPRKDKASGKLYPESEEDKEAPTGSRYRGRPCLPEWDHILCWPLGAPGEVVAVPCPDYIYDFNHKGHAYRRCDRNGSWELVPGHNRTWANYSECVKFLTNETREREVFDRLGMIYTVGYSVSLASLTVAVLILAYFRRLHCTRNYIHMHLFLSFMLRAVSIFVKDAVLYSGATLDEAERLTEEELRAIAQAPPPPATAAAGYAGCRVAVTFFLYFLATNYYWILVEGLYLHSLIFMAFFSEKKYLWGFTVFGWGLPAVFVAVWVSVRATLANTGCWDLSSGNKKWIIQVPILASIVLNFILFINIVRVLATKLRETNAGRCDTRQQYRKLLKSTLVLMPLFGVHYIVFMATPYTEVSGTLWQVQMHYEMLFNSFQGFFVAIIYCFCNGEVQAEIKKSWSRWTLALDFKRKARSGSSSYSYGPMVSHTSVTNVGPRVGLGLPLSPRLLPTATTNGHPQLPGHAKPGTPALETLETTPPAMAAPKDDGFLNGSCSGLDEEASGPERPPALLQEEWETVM
Procedure: (§1) Cell Culture. The cell line HKRK-B28 (Takasu, H., et al., J. Bone Miner. Res. 14:11-20 (1999)) was derived from the porcine kidney cell line, LLC-PK1 by stable transfection with plasmid DNA encoding the human P1R and expresses ˜280,000 receptors per cell. These cells, as well as COS-7 cells and SaOS-2-B10 cells, were cultured at […] in T-75 flasks ([…]) in Dulbecco's modified Eagle's medium (DMEM) supplemented with fetal bovine serum (10%), penicillin G (20 units/ml), streptomycin sulfate (20 μg/ml) and amphotericin B (0.05 μg/ml) in a humidified atmosphere containing 5% CO2. Stock solutions of EGTA/trypsin and antibiotics were from GIBCO; fetal bovine serum was from Hyclone Laboratories (Logan, Utah). COS-7 cells sub-cultured in 24-well plates were transfected with plasmid DNA (200 ng per well) encoding the wild-type human P1R or truncated human P1R deleted for residues (24-181) (Shimizu, M., et al., J. Biol. Chem. 275:21836-21843 (2000)) that was purified by cesium chloride/ethidium bromide density gradient centrifugation, and FuGENE 6 transfection reagent (Roche Indianapolis Ind.) according to the manufacturer's recommended procedure. All cells, in 24-well plates, were treated with fresh media and shifted to 33° C. for 12 to 24 h prior to assay.
cAMP Stimulation. Stimulation of cells with peptide analogs was performed in 24-well plates. Cells were rinsed with 0.5 mL of binding buffer (50 mM Tris-HCI, […], 5 mM KCl, 2 mM CaCl2, 5% heat-inactivated horse serum, 0.5% fetal bovine serum, adjusted to pH 7.5 with HCl) and treated with 200 μL of cAMP assay buffer (Delbecco's modified Eagle's medium containing 2 mM 3-isobutyl-1-methylxanthine, 1 mg/mL bovine serum albumin, 35 mM Hepes-NaOH, pH 7.4) and 100 μL of binding buffer containing varying amounts of peptide analog (final volume=300 μL). The medium was removed after incubation for 30 to 60 minutes at room temperature, and the cells were frozen on dry ice, lysed with 0.5 mL 50 mM HCl, and refrozen ([…]). The cAMP content of the diluted lysate was determined by radioimmunoassay. The EC50 response values were calculated using nonlinear regression (see below).
(§2) Data Calculation. Calculations were performed using Microsoft® Excel. Nonlinear regression analyses of binding and cAMP dose-response data were performed using the four-parameter equation: yp=Min+[(Max−Min)/(1+(IC50/x)^slope)]. The Excel Solver function was utilized for parameter optimization, as described previously (Carter, P. H., et al., Endocrinology 140: 4972-4981 (1999); Bowen, W. P., and Jerman, J. C., Trends in Pharmacol. Sci. 16: 413-417 (1995)). Differences between paired data sets were statistically evaluated using a one-tailed Student's t-test, assuming unequal variances for the two sets.
The number of PTH-1 receptors expressed on the surface of the PTH target cells in bone or kidney is uncertain, but it is likely to be considerably lower than that found in HKRK-B28 cells. Therefore, several of the Aib-mounted PTH analogs were evaluated using SaOS-2 cells.

[2] = target: T2, human P1R (Homo sapiens, UniProt Q03431); assay: Competition binding in HKRK-B28 cells; settings: HKRK-B28 cells; for IC50 / Binding IC50: tracer 125I-[M]PTH(1-21)amide, 4 h at 4° C., N.B. = no binding detected at 10 μm peptide
T2 construct: expressed in transfected cells; host or cells: HKRK-B28 (porcine kidney LLC-PK1, stably transfected)
T2 sequence (Q03431 27-593): T1 sequence (Q03431 27-593)
Procedure: as §1
Competition Binding. Binding reactions were performed with HKRK-B28 cells or in COS-7 cells in 24-well plates. The cells were rinsed with 0.5 mL of binding buffer, and then treated successively with 100 μL binding buffer, 100 μL of binding buffer containing various amounts of unlabeled competitor ligand, and 100 μL of binding buffer containing ca. 100,000 cpm of ^125I-[M]PTH(1-21) or ^125I-[Aib^1,3,M]PTH(1-21)} (ca. 26 fmol; final volume=300 μL). Incubations were 4 to 6 h at 4° C., at which time near equilibrium conditions were attained. Cells were then placed on ice, the binding medium was removed, and the monolayer was rinsed three times with 0.5 mL of cold binding buffer. The cells were subsequently lysed with 0.5 mL […] and counted for radioactivity. For each tracer and in each experiment, the non-specific binding was determined as the radioactivity that bound in the presence of the same unlabeled peptide at a concentration of 1 μM, and was ˜1% of total radioactivity added for each tracer. The maximum specific binding (B0) was the total radioactivity bound in the absence of competing ligand, corrected for nonspecific binding, and for each tracer, ranged from 8% to 20% of the total radioactivity added. Nonlinear regression was used to calculate binding IC50 values (see below). Scatchard transformations of homologous competition binding data derived from studies with 26 fmol of ^125I-[Aib^1,3,M]PTH(1-21) were employed for estimations of apparent equilibrium dissociation constant (kDapps) and total number of ligand binding sites (Bmax), assuming a single class of binding sites and equal affinities of the iodinated and non iodinated ligand.
as §2
The P1R-binding properties of these analogs were assayed in competition studies performed in […]. In previous studies, PTH(1-14) binding could not be detected using ^125I-PTH(1-34) and related N-terminally intact and relatively unmodified radioligands (Luck, M. D., et al., Molecular Endocrinology 13:670-680 (1999)). […]

Compound: CCCC[C@H](NC(=O)[C@H](CCCNC(=N)N)NC(=O)[C@H](CCC(=O)O)NC(=O)[C@@H](NC(=O)[C@H](CO)NC(=O)[C@H](C)NC(=O)[C@H](CC(C)C)NC(=O)[C@H](Cc1c[nH]cn1)NC(=O)[C@H](CCCCN)NC(=O)CNC(=O)[C@H](CC(C)C)NC(=O)[C@H](CC(N)=O)NC(=O)[C@H](Cc1c[nH]cn1)NC(=O)[C@H](CCCC)NC(=O)[C@H](CC(C)C)NC(=O)[C@H](CCC(N)=O)NC(=O)[C@@H](NC(=O)[C@H](CCC(=O)O)NC(=O)[C@H](CO)NC(=O)[C@@H](NC(=O)[C@H](C)N)C(C)C)[C@@H](C)CC)C(C)C)C(=O)N[C@@H](CCC(N)=O)C(=O)N[C@@H](Cc1c[nH]c2ccccc12)C(=O)N[C@@H](CC(C)C)C(=O)N[C@@H](CCCNC(=N)N)C(=O)N[C@@H](CCCCN)C(=O)N[C@@H](CCCCN)C(=O)N[C@@H](CC(C)C)C(=O)N[C@@H](CCC(N)=O)C(=O)N[C@@H](CC(=O)O)C(=O)N[C@H](C(=O)N[C@@H](Cc1c[nH]cn1)C(=O)N[C@@H](CC(N)=O)C(=O)N[C@@H](Cc1ccc(O)cc1)C(N)=O)C(C)C [PTH(1-34), [Nle^8,21, Tyr^34]PTH(1-34)amide, reference compound]
EMAX(obs.) ([1]; cAMP): 350 ± 30 pmole/well
IC50 [2]: 1.8e-08 ± 3e-09 M

Compound: CC[C@H](C)[C@H](NC(=O)[C@H](CCC(=O)O)NC(=O)C(C)(C)NC(=O)[C@@H](NC(=O)C(C)(C)N)C(C)C)C(=O)N[C@@H](CCC(N)=O)C(=O)N[C@@H](CC(C)C)C(=O)N[C@@H](CCSC)C(=O)N[C@@H](Cc1c[nH]cn1)C(=O)N[C@@H](CCC(N)=O)C(N)=O [[Aib^1,3,M]PTH(1-10), [Aib^1,3,Gln^10]PTH(1-10)] (H-[Aib]V[Aib]EIQLMHQ-NH2)
Binding IC50 [2]: did not bind detachably
Binding IC50 ([2]; M]PTH (1-10)): N.B.

Compound: CC[C@H](C)[C@H](NC(=O)[C@H](CCC(=O)O)NC(=O)C(C)(C)NC(=O)[C@@H](NC(=O)C(C)(C)N)C(C)C)C(=O)N[C@@H](CCC(N)=O)C(=O)N[C@@H](CC(C)C)C(=O)N[C@@H](CCSC)C(=O)N[C@@H](Cc1c[nH]cn1)C(=O)N[C@@H](CCC(N)=O)C(=O)N[C@@H](CCCCNC(=N)N)C(N)=O [[Aib^1,3,M]PTH(1-11), AibValAibGluIleGlnLeuMetHisGlnHar] (H-[Aib]V[Aib]EIQLMHQ[hArg]-NH2)
IC50 [2]: 9.7e-07 ± 3e-07 M

Compound: H-AVSEIQLMHNLGKH-NH2 [PTH(1-14), reference compound]
EC50 ([1]; cAMP): N.R.
EC50 ([1]; cAMP, listed as native PTH(1-14)): no activity could be detected

Results, then the compound that gave them:

fold more potent in stimulating cAMP formation than [M]PTH(1-14) [1]: 130 fold
fold less potent than PTH(1-34) ([1]; cAMP): 13 fold
EMAX(obs.) ([1]; cAMP): 320 ± 30 pmole/well
fold improvement of apparent binding affinity relative to [M]PTH(1-14) [2]: 100 fold
fold improvement of apparent binding affinity relative to [M]PTH(1-14) ([2]; listed as Aib-1,3): approximately 100 fold
IC50 [2]: 1.3e-07 ± 2e-08 M
Compound: CC[C@H](C)[C@H](NC(=O)[C@H](CCC(=O)O)NC(=O)C(C)(C)NC(=O)[C@@H](NC(=O)C(C)(C)N)C(C)C)C(=O)N[C@@H](CCC(N)=O)C(=O)N[C@@H](CC(C)C)C(=O)N[C@@H](CCSC)C(=O)N[C@@H](Cc1c[nH]cn1)C(=O)N[C@@H](CCC(N)=O)C(=O)N[C@@H](CCCCNC(=N)N)C(=O)N[C@@H](C)C(=O)N[C@@H](CCCCN)C(=O)N[C@@H](Cc1c[nH]c2ccccc12)C(N)=O [[Aib^1,3,M]PTH(1-14), AibValAibGluIleGlnLeuMetHisGlnHarAlaLysTrp] (H-[Aib]V[Aib]EIQLMHQ[hArg]AKW-NH2)

EMAX(obs.) ([1]; cAMP): 340 ± 30 pmole/well
Compound: CC[C@H](C)[C@H](NC(=O)[C@H](CCC(=O)O)NC(=O)[C@H](C)NC(=O)[C@@H](NC(=O)[C@H](C)N)C(C)C)C(=O)N[C@@H](CCC(N)=O)C(=O)N[C@@H](CC(C)C)C(=O)N[C@@H](CCSC)C(=O)N[C@@H](Cc1c[nH]cn1)C(=O)N[C@@H](CCC(N)=O)C(=O)N[C@@H](CCCCNC(=N)N)C(=O)N[C@@H](C)C(=O)N[C@@H](CCCCN)C(=O)N[C@@H](Cc1c[nH]c2ccccc12)C(N)=O [[M]PTH(1-14), [Ala^3,12,Gln^10,Har^11,Trp^14]PTH(1-14)amide, reference compound] (H-AVAEIQLMHQ[hArg]AKW-NH2)
